ChEMBL document CHEMBL5653615 (J Biol Chem, 2013)
Blank lines part the entries; values can stand above or below the molecule they belong to. The source made the active and inactive calls. The calls are words filed in the database; no cut-off is given here.

Tests used:
[1] = target: Insulin receptor (Homo sapiens) (UniProt P06213); test: Inhibition of wild-type human Insulin receptor transfected in CHO-K1 cell lysate assessed as decrease in tyrosine phosphorylation at 10 uM for 30 mins on ice followed by insulin stimulation for 10 mins by Western blot analysis; format: subcellular; settings: time 40.0 min
[2] = target: CDK4/Cyclin D3 (Homo sapiens) (UniProt P11802+P30281); test: Inhibition of human CDK4/cyclin D3 at 18.6 nM by HotSpot assay relative to control; format: protein-complex assay
[3] = target: Activated CDC42 kinase 1 (Homo sapiens) (UniProt Q07912); test: Inhibition of human ACK1 at 18.6 nM by HotSpot assay relative to control
[4] = target: Tyrosine-protein kinase Lck (Homo sapiens) (UniProt P06239); test: Inhibition of human LCK at 18.6 nM by HotSpot assay relative to control
[5] = target: T1, Cytoplasmic tyrosine-protein kinase BMX (Homo sapiens) (UniProt P51813); test: Inhibition of human BMX at 18.6 nM by HotSpot assay relative to control
T1 sequence (whole entry): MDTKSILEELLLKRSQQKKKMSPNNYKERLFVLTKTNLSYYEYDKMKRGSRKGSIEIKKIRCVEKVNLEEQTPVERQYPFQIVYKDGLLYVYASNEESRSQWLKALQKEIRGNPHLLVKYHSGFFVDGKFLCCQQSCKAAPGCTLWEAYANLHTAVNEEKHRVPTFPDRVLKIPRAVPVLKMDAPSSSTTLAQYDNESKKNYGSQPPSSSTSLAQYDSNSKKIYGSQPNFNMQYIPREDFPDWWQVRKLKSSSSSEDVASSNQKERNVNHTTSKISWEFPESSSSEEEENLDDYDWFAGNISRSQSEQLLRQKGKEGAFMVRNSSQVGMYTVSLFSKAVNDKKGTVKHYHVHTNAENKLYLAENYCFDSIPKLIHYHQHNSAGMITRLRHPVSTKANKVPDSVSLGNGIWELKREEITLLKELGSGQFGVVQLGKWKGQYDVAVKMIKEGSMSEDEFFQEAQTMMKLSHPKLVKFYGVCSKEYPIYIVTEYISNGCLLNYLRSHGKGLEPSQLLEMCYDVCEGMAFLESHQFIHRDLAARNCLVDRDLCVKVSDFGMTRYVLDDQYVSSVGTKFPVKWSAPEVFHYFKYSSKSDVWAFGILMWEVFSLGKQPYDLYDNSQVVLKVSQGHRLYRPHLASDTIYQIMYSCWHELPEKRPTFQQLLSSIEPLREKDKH

[6] = target: T2, Dual specificity tyrosine-phosphorylation-regulated kinase 4 (Homo sapiens) (UniProt Q9NR20); test: Inhibition of human DYRK4 at 18.6 nM by HotSpot assay relative to control
T2 sequence (whole entry): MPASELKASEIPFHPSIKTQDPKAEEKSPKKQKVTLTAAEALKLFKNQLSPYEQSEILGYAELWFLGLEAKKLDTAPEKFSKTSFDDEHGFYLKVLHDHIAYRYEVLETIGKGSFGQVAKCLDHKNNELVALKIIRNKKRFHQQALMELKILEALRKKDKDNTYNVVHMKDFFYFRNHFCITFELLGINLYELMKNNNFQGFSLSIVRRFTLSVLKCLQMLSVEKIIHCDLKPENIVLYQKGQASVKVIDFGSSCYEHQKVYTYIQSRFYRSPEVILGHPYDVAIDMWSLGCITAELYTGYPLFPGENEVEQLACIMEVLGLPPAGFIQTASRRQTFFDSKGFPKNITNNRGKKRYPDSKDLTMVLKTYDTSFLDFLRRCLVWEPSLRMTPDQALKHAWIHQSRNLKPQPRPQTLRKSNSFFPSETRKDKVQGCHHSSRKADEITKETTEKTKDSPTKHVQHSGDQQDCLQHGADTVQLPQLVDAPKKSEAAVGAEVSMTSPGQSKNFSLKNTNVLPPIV

[7] = target: T3, Protein kinase C iota type (Homo sapiens) (UniProt P41743); test: Inhibition of human PKCiota at 18.6 nM by HotSpot assay relative to control
T3 sequence (whole entry): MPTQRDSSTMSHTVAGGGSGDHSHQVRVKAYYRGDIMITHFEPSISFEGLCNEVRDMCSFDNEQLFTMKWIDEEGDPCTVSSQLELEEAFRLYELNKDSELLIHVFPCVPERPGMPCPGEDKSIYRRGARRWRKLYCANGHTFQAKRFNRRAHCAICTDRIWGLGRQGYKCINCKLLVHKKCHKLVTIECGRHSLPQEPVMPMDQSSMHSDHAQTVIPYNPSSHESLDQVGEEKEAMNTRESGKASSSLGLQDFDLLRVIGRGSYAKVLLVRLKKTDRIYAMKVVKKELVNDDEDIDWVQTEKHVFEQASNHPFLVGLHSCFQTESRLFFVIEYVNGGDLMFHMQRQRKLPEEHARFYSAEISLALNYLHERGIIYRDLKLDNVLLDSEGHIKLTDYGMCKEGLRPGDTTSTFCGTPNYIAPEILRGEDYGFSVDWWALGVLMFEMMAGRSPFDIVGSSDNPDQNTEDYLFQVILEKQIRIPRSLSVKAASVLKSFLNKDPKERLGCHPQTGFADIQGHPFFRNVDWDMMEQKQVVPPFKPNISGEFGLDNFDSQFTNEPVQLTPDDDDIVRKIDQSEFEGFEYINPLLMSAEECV

[8] = target: Serine/threonine-protein kinase pim-1 (Homo sapiens) (UniProt P11309); test: Inhibition of human PIM1 at 18.6 nM by HotSpot assay relative to control
[9] = target: Ribosomal protein S6 kinase alpha-4 (Homo sapiens) (UniProt O75676); test: Inhibition of human RPS6KA4 at 1.82 nM by HotSpot assay relative to control
[10] = target: Serine/threonine-protein kinase Chk2 (Homo sapiens) (UniProt O96017); test: Inhibition of human CHK2 at 1.82 nM by HotSpot assay relative to control
[11] = target: Vascular endothelial growth factor receptor 2 (Homo sapiens) (UniProt P35968); test: Inhibition of human KDR at 1.82 nM by HotSpot assay relative to control
[12] = target: Tyrosine-protein kinase Fer (Homo sapiens) (UniProt P16591); test: Inhibition of human FER at 1.82 nM by HotSpot assay relative to control
[13] = target: T2, Dual specificity tyrosine-phosphorylation-regulated kinase 4 (Homo sapiens); test: Inhibition of human DYRK4 at 1.82 nM by HotSpot assay relative to control
[14] = target: Ephrin type-A receptor 4 (Homo sapiens) (UniProt P54764); test: Inhibition of human EPHA4 at 1.82 nM by HotSpot assay relative to control
[15] = target: Cyclin-dependent kinase 4/cyclin D1 (Homo sapiens) (UniProt P11802+P24385); test: Inhibition of human CDK4/cyclin D1 at 1.82 nM by HotSpot assay relative to control; format: protein-complex assay
[16] = target: Serine/threonine-protein kinase 25 (Homo sapiens) (UniProt O00506); test: Inhibition of human YSK1 at 1.82 nM by HotSpot assay relative to control
[17] = target: Homeodomain-interacting protein kinase 1 (Homo sapiens) (UniProt Q86Z02); test: Inhibition of human HIPK1 at 1.82 nM by HotSpot assay relative to control
Homeodomain-interacting protein kinase 1 (Homo sapiens), sequence (Q86Z02 whole entry, looked up): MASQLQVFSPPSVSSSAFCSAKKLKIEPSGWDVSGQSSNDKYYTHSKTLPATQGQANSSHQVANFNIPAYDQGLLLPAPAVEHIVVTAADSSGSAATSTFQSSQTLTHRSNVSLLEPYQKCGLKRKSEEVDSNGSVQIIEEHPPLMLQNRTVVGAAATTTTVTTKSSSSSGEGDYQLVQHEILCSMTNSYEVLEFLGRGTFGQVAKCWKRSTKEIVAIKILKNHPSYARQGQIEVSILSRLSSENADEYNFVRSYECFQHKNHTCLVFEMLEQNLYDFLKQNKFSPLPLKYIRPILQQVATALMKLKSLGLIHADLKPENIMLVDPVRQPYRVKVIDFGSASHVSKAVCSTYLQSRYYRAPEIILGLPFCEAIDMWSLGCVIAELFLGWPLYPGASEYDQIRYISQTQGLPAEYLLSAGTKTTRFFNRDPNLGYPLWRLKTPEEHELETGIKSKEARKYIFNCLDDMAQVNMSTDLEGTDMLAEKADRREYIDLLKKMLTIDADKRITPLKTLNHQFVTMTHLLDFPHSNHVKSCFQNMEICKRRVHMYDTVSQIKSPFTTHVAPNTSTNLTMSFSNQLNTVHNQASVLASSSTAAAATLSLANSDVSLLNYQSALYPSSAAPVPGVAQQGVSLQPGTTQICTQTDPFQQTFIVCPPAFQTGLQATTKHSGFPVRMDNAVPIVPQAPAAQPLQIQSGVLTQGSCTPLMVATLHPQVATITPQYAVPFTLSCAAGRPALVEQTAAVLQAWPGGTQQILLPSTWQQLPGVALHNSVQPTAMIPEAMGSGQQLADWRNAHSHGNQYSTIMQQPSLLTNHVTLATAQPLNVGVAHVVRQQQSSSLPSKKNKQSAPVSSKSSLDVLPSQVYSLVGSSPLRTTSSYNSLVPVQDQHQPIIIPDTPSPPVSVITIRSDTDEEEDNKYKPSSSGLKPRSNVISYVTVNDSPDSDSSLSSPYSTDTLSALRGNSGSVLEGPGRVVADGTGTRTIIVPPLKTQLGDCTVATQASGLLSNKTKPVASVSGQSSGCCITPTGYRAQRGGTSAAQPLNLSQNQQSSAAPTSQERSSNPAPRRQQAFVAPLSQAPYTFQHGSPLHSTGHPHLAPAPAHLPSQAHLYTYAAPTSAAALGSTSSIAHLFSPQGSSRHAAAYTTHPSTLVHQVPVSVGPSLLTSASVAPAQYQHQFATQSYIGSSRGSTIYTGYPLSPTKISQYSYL

Tyrosine-protein kinase Lck (Homo sapiens), sequence (P06239 2-509 limits assumed): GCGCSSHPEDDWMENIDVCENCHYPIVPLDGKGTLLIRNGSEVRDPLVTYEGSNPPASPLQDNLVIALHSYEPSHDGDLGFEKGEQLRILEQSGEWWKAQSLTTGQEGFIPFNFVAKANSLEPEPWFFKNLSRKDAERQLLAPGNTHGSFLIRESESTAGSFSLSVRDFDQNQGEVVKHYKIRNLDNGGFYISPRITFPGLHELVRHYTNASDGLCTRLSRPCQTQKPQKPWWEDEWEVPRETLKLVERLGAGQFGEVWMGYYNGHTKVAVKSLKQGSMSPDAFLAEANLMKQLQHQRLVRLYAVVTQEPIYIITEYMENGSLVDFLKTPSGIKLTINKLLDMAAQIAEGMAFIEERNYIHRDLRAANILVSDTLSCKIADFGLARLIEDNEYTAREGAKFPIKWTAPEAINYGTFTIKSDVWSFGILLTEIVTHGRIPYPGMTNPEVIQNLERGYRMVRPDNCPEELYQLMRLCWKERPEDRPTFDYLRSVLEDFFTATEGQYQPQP
Serine/threonine-protein kinase 25 (Homo sapiens), sequence (O00506 whole entry, looked up): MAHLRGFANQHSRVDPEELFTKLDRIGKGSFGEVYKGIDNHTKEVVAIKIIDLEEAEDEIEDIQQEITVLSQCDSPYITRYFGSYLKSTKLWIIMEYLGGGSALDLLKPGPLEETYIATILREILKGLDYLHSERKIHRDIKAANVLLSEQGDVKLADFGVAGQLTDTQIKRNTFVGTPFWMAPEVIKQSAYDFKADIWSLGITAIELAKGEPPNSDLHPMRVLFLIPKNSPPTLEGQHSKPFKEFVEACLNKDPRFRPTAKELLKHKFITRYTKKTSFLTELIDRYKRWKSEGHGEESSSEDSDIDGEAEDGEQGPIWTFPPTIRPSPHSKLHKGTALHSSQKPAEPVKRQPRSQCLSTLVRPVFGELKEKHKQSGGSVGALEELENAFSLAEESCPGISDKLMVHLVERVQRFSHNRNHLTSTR
Insulin receptor (Homo sapiens), sequence (P06213 28-758 limits assumed): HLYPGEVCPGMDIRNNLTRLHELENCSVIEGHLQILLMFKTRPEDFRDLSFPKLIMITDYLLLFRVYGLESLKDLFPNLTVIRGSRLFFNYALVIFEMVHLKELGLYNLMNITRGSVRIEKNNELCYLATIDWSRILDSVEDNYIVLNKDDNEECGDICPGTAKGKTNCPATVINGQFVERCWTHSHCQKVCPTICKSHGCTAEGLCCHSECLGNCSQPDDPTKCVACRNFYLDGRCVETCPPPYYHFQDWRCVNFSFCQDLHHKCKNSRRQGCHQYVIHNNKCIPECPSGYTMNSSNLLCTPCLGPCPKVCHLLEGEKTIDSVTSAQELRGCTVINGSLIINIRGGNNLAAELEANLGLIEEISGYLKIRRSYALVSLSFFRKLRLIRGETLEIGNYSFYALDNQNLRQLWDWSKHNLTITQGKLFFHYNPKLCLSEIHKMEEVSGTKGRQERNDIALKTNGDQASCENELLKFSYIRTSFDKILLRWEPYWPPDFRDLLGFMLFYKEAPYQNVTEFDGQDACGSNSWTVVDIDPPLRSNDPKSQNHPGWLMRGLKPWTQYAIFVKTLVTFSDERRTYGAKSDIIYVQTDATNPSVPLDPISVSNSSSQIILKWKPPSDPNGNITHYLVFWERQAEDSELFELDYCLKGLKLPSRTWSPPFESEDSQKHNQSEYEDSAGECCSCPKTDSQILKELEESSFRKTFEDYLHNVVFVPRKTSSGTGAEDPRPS
Insulin receptor (Homo sapiens), sequence (P06213 763-1382 limits assumed): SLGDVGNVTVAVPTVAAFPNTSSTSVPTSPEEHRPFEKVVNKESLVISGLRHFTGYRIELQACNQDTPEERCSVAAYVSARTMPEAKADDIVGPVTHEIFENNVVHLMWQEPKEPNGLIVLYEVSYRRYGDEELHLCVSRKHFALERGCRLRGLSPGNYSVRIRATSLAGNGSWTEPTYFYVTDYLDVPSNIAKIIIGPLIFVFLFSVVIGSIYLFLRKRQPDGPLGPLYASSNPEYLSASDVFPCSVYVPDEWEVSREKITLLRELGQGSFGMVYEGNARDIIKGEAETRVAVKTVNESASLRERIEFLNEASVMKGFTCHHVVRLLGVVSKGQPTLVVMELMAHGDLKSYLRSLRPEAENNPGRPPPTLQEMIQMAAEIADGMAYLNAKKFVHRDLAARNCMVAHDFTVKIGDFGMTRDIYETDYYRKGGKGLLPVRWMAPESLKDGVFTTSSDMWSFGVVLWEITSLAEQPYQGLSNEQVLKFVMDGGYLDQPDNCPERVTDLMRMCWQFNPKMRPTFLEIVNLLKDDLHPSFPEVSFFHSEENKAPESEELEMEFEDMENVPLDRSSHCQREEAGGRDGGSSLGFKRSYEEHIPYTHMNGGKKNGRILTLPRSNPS
Tyrosine-protein kinase Fer (Homo sapiens), sequence (P16591 whole entry, looked up): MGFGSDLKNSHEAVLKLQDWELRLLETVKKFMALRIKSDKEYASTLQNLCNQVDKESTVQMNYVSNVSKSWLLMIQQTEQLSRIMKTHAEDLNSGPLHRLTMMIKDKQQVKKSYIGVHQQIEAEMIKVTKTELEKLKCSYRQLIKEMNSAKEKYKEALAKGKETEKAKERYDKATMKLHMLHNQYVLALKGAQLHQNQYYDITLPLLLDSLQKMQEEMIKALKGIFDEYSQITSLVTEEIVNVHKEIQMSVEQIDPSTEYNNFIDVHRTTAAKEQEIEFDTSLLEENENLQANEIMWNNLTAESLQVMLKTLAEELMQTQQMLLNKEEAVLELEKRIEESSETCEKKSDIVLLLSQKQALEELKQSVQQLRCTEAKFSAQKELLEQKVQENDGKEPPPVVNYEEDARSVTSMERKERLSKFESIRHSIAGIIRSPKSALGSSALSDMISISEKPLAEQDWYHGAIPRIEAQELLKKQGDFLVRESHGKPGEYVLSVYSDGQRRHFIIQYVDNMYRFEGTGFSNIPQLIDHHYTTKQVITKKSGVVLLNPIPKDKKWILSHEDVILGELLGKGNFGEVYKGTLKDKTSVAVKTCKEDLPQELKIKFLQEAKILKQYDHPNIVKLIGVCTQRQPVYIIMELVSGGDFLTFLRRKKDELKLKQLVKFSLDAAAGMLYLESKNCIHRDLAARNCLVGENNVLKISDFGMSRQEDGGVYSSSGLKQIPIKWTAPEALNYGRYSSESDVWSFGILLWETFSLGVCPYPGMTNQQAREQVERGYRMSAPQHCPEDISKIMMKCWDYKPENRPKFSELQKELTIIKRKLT
Serine/threonine-protein kinase Chk2 (Homo sapiens), sequence (O96017 whole entry): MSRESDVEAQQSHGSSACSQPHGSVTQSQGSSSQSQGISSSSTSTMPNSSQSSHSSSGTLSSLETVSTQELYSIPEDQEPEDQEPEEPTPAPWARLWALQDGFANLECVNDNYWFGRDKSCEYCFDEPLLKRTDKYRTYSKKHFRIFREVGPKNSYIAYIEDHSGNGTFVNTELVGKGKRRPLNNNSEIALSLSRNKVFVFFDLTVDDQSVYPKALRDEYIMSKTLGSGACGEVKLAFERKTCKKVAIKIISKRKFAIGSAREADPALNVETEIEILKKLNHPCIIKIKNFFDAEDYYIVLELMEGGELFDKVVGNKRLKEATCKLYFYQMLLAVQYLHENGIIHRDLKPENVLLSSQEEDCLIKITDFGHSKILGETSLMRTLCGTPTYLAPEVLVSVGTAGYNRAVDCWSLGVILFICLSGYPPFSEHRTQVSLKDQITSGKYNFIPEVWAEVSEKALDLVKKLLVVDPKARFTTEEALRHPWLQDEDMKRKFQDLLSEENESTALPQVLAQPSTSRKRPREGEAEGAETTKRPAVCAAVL

SMILES: Oc1n[nH]c2nnc(-c3c(-c4ccccc4)nn4ccccc34)cc12
inhibition [1]: Active

inhibition [2]: 2.46%
inhibition [3]: 3%
inhibition [4]: 6.33%
inhibition [5]: -2.96%
inhibition [6]: -1.52%
inhibition [7]: -2.19%
inhibition [8]: -3.58%
SMILES: C[C@]1(O)C[C@@H](c2nc(-c3ccc4ccc(-c5ccccc5)nc4c3)c3c(N)nccn32)C1

inhibition [9]: -3.34%
inhibition [10]: 0.29%
inhibition [11]: 3.67%
inhibition [12]: -2.54%
inhibition [13]: -0.4%
inhibition [14]: -4.4%
inhibition [15]: -5.89%
inhibition [16]: 5.25%
inhibition [17]: -6.64%
SMILES: C[C@@]1(C(=O)Nc2ccc(F)nc2)CCCN1c1nc(Nc2cc(C3CC3)n[nH]2)c2cccn2n1
